Assay results from PubChem BioAssay (NCI).
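Test compounds were applied to cells in 96-well plates for 48 hours at 5 doses. The concentration for 50% growth inhibition is given as GI50. At the TGI there is no net growth.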

Key:
Assay in all cases: NCI-60 cell line screen, 48 h
[1] = tested on: NCI-H226 lung
[2] = tested on: OVCAR-8 ovarian
[3] = tested on: SNB-75 CNS
[4] = tested on: DU-145 prostate
[5] = tested on: UO-31 renal
[6] = tested on: SK-MEL-2 melanoma
[7] = tested on: MOLT-4 leukemia
[8] = tested on: SF-295 CNS
[9] = tested on: UACC-257 melanoma
[10] = tested on: T-47D breast
[11] = tested on: NCI-H460 lung
[12] = tested on: A549 NSCLC
[13] = tested on: SF-268 CNS
[14] = tested on: RXF 393 renal
[15] = tested on: HOP-62 NSCLC
[16] = tested on: HT29 colon
[17] = tested on: COLO 205 colon
[18] = tested on: HL-60(TB) leukemia
[19] = tested on: MALME-3M melanoma
[20] = tested on: SK-MEL-5 melanoma
[21] = tested on: ACHN renal
[22] = tested on: SNB-19 CNS
[23] = tested on: NCI/ADR-RES ovarian
[24] = tested on: IGROV1 ovarian
[25] = tested on: HS 578T breast
[26] = tested on: SN12C renal
[27] = tested on: RPMI-8226 leukemia
[28] = tested on: SR leukemia
[29] = tested on: HOP-92 NSCLC
[30] = tested on: HCC-2998 colon
[31] = tested on: MDA-MB-231 breast
[32] = tested on: NCI-H522 lung
[33] = tested on: UACC-62 melanoma
[34] = tested on: HCT-116 colon
[35] = tested on: K-562 leukemia
[36] = tested on: SK-MEL-28 melanoma
[37] = tested on: A498 renal
[38] = tested on: PC-3 prostate
[39] = tested on: CAKI-1 renal
[40] = tested on: SW-620 colon
[41] = tested on: OVCAR-3 ovarian
[42] = tested on: LOX IMVI melanoma
[43] = tested on: CCRF-CEM leukemia
[44] = tested on: SK-OV-3 ovarian
[45] = tested on: OVCAR-5 ovarian
[46] = tested on: SF-539 CNS
[47] = tested on: TK-10 renal
[48] = tested on: EKVX NSCLC
[49] = tested on: U251 CNS
[50] = tested on: OVCAR-4 ovarian
[51] = tested on: M14 melanoma
[52] = tested on: MCF7 breast
[53] = tested on: BT-549 breast
[54] = tested on: 786-0 renal
[55] = tested on: KM12 colon
[56] = tested on: HCT-15 colon
[57] = tested on: MDA-MB-435

## CCNC(=O)N1CCc2cc(OC)c(OCCc3ccc(OC)cc3)cc2C1c1ccc(Cl)cc1C (centres undefined)
[1]
  GI50: 1890 nM
  TGI: 7060 nM
[2]
  GI50: 669 nM
  TGI: > 100000 nM
[3]
  GI50: 456 nM
  TGI: 6300 nM
[4]
  GI50: 830 nM
  TGI: > 100000 nM
[5]
  GI50: 932 nM
  TGI: > 100000 nM
[6]
  GI50: 3520 nM
  TGI: > 23700 nM
[7]
  GI50: 338 nM
  TGI: > 100000 nM
[8]
  GI50: 711 nM
  TGI: 12700 nM
[9]
  GI50: 2310 nM
  TGI: > 100000 nM
[10]
  GI50: 1840 nM
  TGI: > 100000 nM
[11]
  GI50: 100 nM
  TGI: 2250 nM
[12]
  GI50: 735 nM
  TGI: > 100000 nM
[13]
  GI50: 1030 nM
  TGI: > 100000 nM
[14]
  GI50: 1450 nM
  TGI: > 21600 nM
[15]
  GI50: 958 nM
  TGI: > 100000 nM
[16]
  GI50: 444 nM
  TGI: 3140 nM
[17]
  GI50: 1020 nM
  TGI: 5940 nM
[18]
  GI50: 643 nM
  TGI: 3970 nM
[19]
  GI50: 3650 nM
  TGI: > 100000 nM
[20]
  GI50: 670 nM
  TGI: 2310 nM
[21]
  GI50: 676 nM
  TGI: > 100000 nM
[22]
  GI50: 683 nM
  TGI: > 100000 nM
[23]
  GI50: 735 nM
  TGI: 5810 nM
[24]
  GI50: 607 nM
  TGI: > 100000 nM
[25]
  GI50: 1700 nM
  TGI: 8990 nM
[26]
  GI50: 1020 nM
  TGI: > 25000 nM
[27]
  GI50: 403 nM
  TGI: 3950 nM
[28]
  GI50: 96.1 nM
  TGI: 3300 nM
[29]
  GI50: 1480 nM
  TGI: > 21400 nM
[30]
  GI50: 1270 nM
  TGI: > 33300 nM
[31]
  GI50: 801 nM
  TGI: > 100000 nM
[32]
  GI50: 700 nM
  TGI: 2950 nM
[33]
  GI50: 532 nM
  TGI: 6440 nM
[34]
  GI50: 86.6 nM
  TGI: > 100000 nM
[35]
  GI50: 92.4 nM
  TGI: > 100000 nM
[36]
  GI50: 943 nM
  TGI: > 100000 nM
[37]
  GI50: 4020 nM
  TGI: > 24200 nM
[38]
  GI50: 217 nM
  TGI: > 100000 nM
[39]
  GI50: 736 nM
  TGI: > 50100 nM
[40]
  GI50: 568 nM
  TGI: > 100000 nM
[41]
  GI50: 1040 nM
  TGI: > 100000 nM
[42]
  GI50: 186 nM
  TGI: 1770 nM
[43]
  GI50: 382 nM
  TGI: > 100000 nM
[44]
  GI50: 2110 nM
  TGI: > 100000 nM
[45]
  GI50: 1860 nM
  TGI: > 100000 nM
[46]
  GI50: 410 nM
  TGI: 3160 nM
[47]
  GI50: 3520 nM
  TGI: > 100000 nM
[48]
  GI50: 4090 nM
  TGI: > 100000 nM
[49]
  GI50: 479 nM
  TGI: > 40100 nM
[50]
  GI50: 2580 nM
  TGI: > 100000 nM
[51]
  GI50: 726 nM
  TGI: > 100000 nM
[52]
  GI50: 422 nM
  TGI: > 100000 nM
[53]
  GI50: 1060 nM
  TGI: 4570 nM
[54]
  GI50: 421 nM
  TGI: > 100000 nM
[55]
  GI50: 1380 nM
  TGI: > 31400 nM
[56]
  GI50: 85.3 nM
  TGI: > 100000 nM
[57]
  GI50: 660 nM
  TGI: 5820 nM
